The text below walks through data of patent publication US4223041A, “Urea derivatives to treat anxiety and aggressivity” (Labaz, priority 1976, dated 1980).

Where only a bound is given, the exact number is not on record here.

Data set [1] in a line: Action with respect to tremorine (cholinolytic properties). It is filed as in vivo, mouse. On the procedure: This test has been described by EVERETT (Nature, 1956, 177-238)
When injected into mice, tremorine produces peripheral cholinergic effects i.e. weeping, hypersalivation, sedation, diarrhea as well as central cholinergic effects i.e. tremors, akinesia.
Batches of 10 mice separated into individual cages, were given the compound to be studied, by oral route, 30 minutes before administration of an intraperitoneal dose of 100 mg/kg of tremorine.
Note was then taken in each batch of the percentage of animals presenting the various symptoms of tremorine-induced poisoning since at such a dose of tremorine 100% of the control animals are poisoned.
The results hereunder are expressed in percentage of mice protected against tremor at the dose of the compound of the invention which was administered: […]

A short description of the next data set: Acute toxicity in mice. Particulars: mouse, in vivo. On the procedure: Acute toxicity was determined on Swiss E.O.P.S. mice, by oral route, using the technique of LITCHFIELD and WILCOXON (J. Pharmacol. Exp. Ther. […], 96, 99).
Data set [2] in a line: Influence on acetylcholine-induced hypotension and bradycardia. It is filed as in vivo. As to conditions: 100 mg/kg i.p., rat. As to the method: Similarly, at a dose of 100 mg/kg by intraperitoneal route, the preferred compound of the invention has no influence on acetylcholine-induced hypotension and bradycardia in the rat.

Take `CCCC(CCC)(CCC)NC(N)=O` [Compound A, 1-(1,1-Di-n-propyl-n-butyl)-urea]: in data set [1] (200 mg/kg oral, mice, 30 min before 100 mg/kg i.p. tremorine), the “% of protection against tremor” value amounted to 0%. The “protection against central or peripheral cholinergic effects provoked by tremorine” value in data set [1] (100, 300, 400 and 500 mg/kg oral) is “did not protect any animal”. Also, the mortality at 192 h in the data set “Acute toxicity in mice” (3000 mg/kg oral, 8-day observation, read-out: deaths) was found to be 5%. Moreover, the LD50 in “Acute toxicity in mice” (oral) was above 3000 mg/kg. Further, in data set [2], the “influence on acetylcholine-induced bradycardia” value is on record as “no influence” and the “influence on acetylcholine-induced hypotension” value is reported as “no influence”.
